Measurements from ChEMBL document CHEMBL1201862, “PubChem BioAssay data set” (2004).
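Cultured in 96-well plates, cells were exposed to test compound for 48 hours across five concentrations. GI50 marks 50% less growth.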 Active and inactive are the calls of the source. No stated cut-off is given here; in the data, active = GI50 up to about 1.1 µM and inactive = higher.

What was measured:
Assay in all cases: NCI anticancer screen, dose series, 48 h
CAKI-1 = test system: CAKI-1
COLO 205 = test system: COLO 205
HT-29 = test system: HT-29
IGROV-1 = test system: IGROV-1
LOX IMVI = test system: LOX IMVI
M14 = test system: M14
NCI-H226 = test system: NCI-H226
NCI-H23 = test system: NCI-H23
SF-295 = test system: SF-295
SF-539 = test system: SF-539
SK-MEL-2 = test system: SK-MEL-2
SK-OV-3 = test system: SK-OV-3
SN12C = test system: SN12C
SNB-75 = test system: SNB-75
TK-10 = test system: TK-10
UO-31 = test system: UO-31
MDA-MB-435 = test system: MDA-MB-435
PC-3 = test system: PC-3
MDA-N = test system: MDA-N

Measured: GI50

COc1ccc(N2C(=O)/C(=C/c3ccc(N(CCC#N)CCC#N)cc3C)N=C2/C=C\c2ccccc2)cc1
inactive: CAKI-1 29.2 µM | COLO 205 26.7 µM | HT-29 38.9 µM | IGROV-1 68.4 µM | LOX IMVI 28.8 µM | M14 27.1 µM | NCI-H226 > 100 µM | NCI-H23 49.5 µM | SF-295 35.5 µM | SF-539 10.8 µM | SK-MEL-2 > 100 µM | SK-OV-3 49.7 µM | SN12C 4.35 µM | SNB-75 > 100 µM | TK-10 98.9 µM | UO-31 14 µM

CP(C)C.[Ag][I]
inactive: CAKI-1 > 100 µM | COLO 205 47.9 µM | HT-29 > 100 µM | IGROV-1 40.4 µM | LOX IMVI 25.5 µM | M14 > 100 µM | NCI-H226 > 100 µM | NCI-H23 85.3 µM | SF-295 > 100 µM | SF-539 > 100 µM | SK-MEL-2 > 100 µM | SK-OV-3 > 100 µM | SN12C > 100 µM | SNB-75 20 µM | TK-10 41.5 µM | UO-31 > 100 µM

CCCCNC1=C(C(=O)OCC)C(=O)CO1
inactive: CAKI-1 > 100 µM | COLO 205 > 100 µM | HT-29 > 100 µM | IGROV-1 > 100 µM | LOX IMVI > 100 µM | M14 > 100 µM | NCI-H226 > 100 µM | NCI-H23 > 100 µM | SF-295 > 100 µM | SF-539 > 100 µM | SK-MEL-2 > 100 µM | SK-OV-3 > 100 µM | SN12C > 100 µM | SNB-75 80.2 µM | TK-10 > 100 µM | UO-31 > 100 µM

OCn1nc2c(C3OCCO3)cc3ccccc3n2c1=S
inactive: CAKI-1 > 100 µM | COLO 205 > 100 µM | HT-29 > 100 µM | IGROV-1 > 100 µM | LOX IMVI > 100 µM | M14 > 100 µM | NCI-H226 > 100 µM | NCI-H23 > 100 µM | SF-295 > 100 µM | SF-539 > 100 µM | SK-MEL-2 > 100 µM | SK-OV-3 > 100 µM | SN12C > 100 µM | SNB-75 > 100 µM | TK-10 > 100 µM | UO-31 > 100 µM

O=C1c2ccccc2C(=O)C2NC(CCCCCSSCCCCCC3=NC4C(=O)c5ccccc5C(=O)C4N3)=NC12 (stereo unspecified)
inactive: CAKI-1 6.47 µM | HT-29 > 100 µM | IGROV-1 12.9 µM | LOX IMVI > 100 µM | M14 4.57 µM | MDA-MB-435 > 100 µM | NCI-H226 > 100 µM | NCI-H23 40.2 µM | PC-3 > 100 µM | SF-295 4.57 µM | SF-539 24.3 µM | SK-MEL-2 > 100 µM | SK-OV-3 50.8 µM | TK-10 68.2 µM | UO-31 7.74 µM

COc1cc(C2(C)SCCCS2)c(I)c(OC)c1OC
inactive: CAKI-1 > 100 µM | COLO 205 > 100 µM | HT-29 > 100 µM | IGROV-1 > 100 µM | LOX IMVI > 100 µM | M14 > 100 µM | NCI-H226 > 100 µM | NCI-H23 > 100 µM | SF-295 > 100 µM | SF-539 > 100 µM | SK-MEL-2 > 100 µM | SK-OV-3 > 100 µM | SN12C > 100 µM | SNB-75 > 100 µM | TK-10 > 100 µM | UO-31 > 100 µM

CC(=O)OC1CC2C(C)(C)C(=O)C=C[C@]2(C)C2CCC3(C)C(c4ccoc4)C(=O)C4OC43[C@]12C (stereo partly specified)
inactive: CAKI-1 28.5 µM | COLO 205 18.1 µM | HT-29 16.3 µM | IGROV-1 21 µM | LOX IMVI 13.2 µM | M14 17.3 µM | NCI-H226 16.2 µM | NCI-H23 15.3 µM | SF-295 16.9 µM | SF-539 20.1 µM | SK-MEL-2 16 µM | SK-OV-3 13.2 µM | SN12C 15.2 µM | SNB-75 22.4 µM | TK-10 36.6 µM | UO-31 20.2 µM

C=C[C@@]12CCCCC1C/C(=C(/O)OC)C(=O)C2 (stereo partly specified)
inactive: CAKI-1 > 100 µM | COLO 205 > 100 µM | HT-29 > 100 µM | IGROV-1 > 100 µM | LOX IMVI > 100 µM | M14 > 100 µM | NCI-H226 > 100 µM | NCI-H23 > 100 µM | SF-295 > 100 µM | SF-539 > 100 µM | SK-MEL-2 > 100 µM | SK-OV-3 > 100 µM | SN12C > 100 µM | SNB-75 > 100 µM | TK-10 > 100 µM | UO-31 > 100 µM

c1ccc(-c2cc(-c3cccs3)c(-c3cccs3)s2)cc1
inactive: CAKI-1 26.4 µM | COLO 205 47.3 µM | HT-29 55.7 µM | IGROV-1 > 100 µM | M14 18.9 µM | MDA-MB-435 27.1 µM | MDA-N 14.6 µM | NCI-H226 > 100 µM | NCI-H23 19.1 µM | SF-295 80 µM | SF-539 > 100 µM | SK-OV-3 > 100 µM | SN12C 85.9 µM | SNB-75 20 µM | TK-10 32.2 µM | UO-31 26.2 µM

Cc1ccc(C(O)(c2ccc(C)cc2)c2ccccn2)cc1
inactive: CAKI-1 > 100 µM | COLO 205 > 100 µM | HT-29 80.7 µM | IGROV-1 > 100 µM | LOX IMVI > 100 µM | M14 > 100 µM | NCI-H226 > 100 µM | NCI-H23 80.2 µM | SF-295 > 100 µM | SF-539 > 100 µM | SK-MEL-2 > 100 µM | SK-OV-3 > 100 µM | SN12C > 100 µM | SNB-75 30.9 µM | TK-10 62.1 µM | UO-31 38.3 µM

CC(C)(C)C(=O)OC12/C(=N/O)CCCCCC1c1ccccc12 (stereo unspecified)
inactive: CAKI-1 11.9 µM | COLO 205 17 µM | HT-29 13.3 µM | IGROV-1 16.1 µM | LOX IMVI 14.3 µM | M14 16.9 µM | NCI-H226 17.7 µM | NCI-H23 16.6 µM | SF-295 15.6 µM | SF-539 23.2 µM | SK-MEL-2 19.2 µM | SK-OV-3 18.7 µM | SN12C 19 µM | SNB-75 14.5 µM | TK-10 15.9 µM | UO-31 17.1 µM

CCOC(=O)C1=C(O)C(=O)c2ccsc2C1=O
inactive: CAKI-1 > 100 µM | COLO 205 > 100 µM | HT-29 > 100 µM | IGROV-1 > 100 µM | LOX IMVI > 100 µM | M14 > 100 µM | NCI-H226 > 100 µM | NCI-H23 > 100 µM | SF-295 > 100 µM | SF-539 > 100 µM | SK-MEL-2 > 100 µM | SK-OV-3 > 100 µM | SN12C > 100 µM | SNB-75 > 100 µM | TK-10 > 100 µM | UO-31 > 100 µM
